Assay results published in the supplement of paper PMC11061612.

Legend:
Assay in all cases: combination Emax (second highest fraction inhibited in the dose matrix, 72 h); higher = more inhibition; extreme values may be limits of the assay
[1] = tested on: GR-ST (B-Lymphoblastic Leukemia)
Method in brief: (§1)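 After 24 hours at 37°C and 5% CO2 in 1536-well plates, cells in DMEM/F12 or RPMI plus 10% FBS received two-drug dose matrices for 72 hours. Viability came from CellTiter-Glo 2.0 luminescence and was scaled as inhibition, anchored at 0 by vehicle wells and at 1 by blank wells. Combination Emax is taken as the second-highest inhibition in the matrix, and Bliss excess as the observed combination effect less EA + EB − EA·EB, with EA and EB the single-agent effects.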

LN-18 (Glioblastoma) = tested on: LN-18 (Glioblastoma)
Method in brief: as §1

[2] = tested on: L-540 (Hodgkin's Lymphoma)
Method in brief: as §1

[3] = tested on: KARPAS-45 (T-Lymphoblastic Leukemia)
Method in brief: as §1

[4] = tested on: SU-DHL-8 (B-Cell Non-Hodgkin's Lymphoma)
Method in brief: as §1

[5] = tested on: KM12 (Colorectal Carcinoma)
Method in brief: as §1

NCI-H2818 (Mesothelioma) = tested on: NCI-H2818 (Mesothelioma)
Method in brief: as §1

[6] = tested on: SW1417 (Colorectal Carcinoma)
Method in brief: as §1

[7] = tested on: HDQ-P1 (Breast Carcinoma)
Method in brief: as §1

ES8 (Ewing's Sarcoma) = tested on: ES8 (Ewing's Sarcoma)
Method in brief: as §1

[8] = tested on: BFTC-905 (Bladder Carcinoma)
Method in brief: as §1

[9] = tested on: PANC-08-13 (Pancreatic Carcinoma)
Method in brief: as §1

CHP-212 (Neuroblastoma) = tested on: CHP-212 (Neuroblastoma)
Method in brief: as §1

[10] = tested on: HL-60 (Acute Myeloid Leukemia)
Method in brief: as §1

[11] = tested on: BL-41 (Burkitt's Lymphoma)
Method in brief: as §1

[12] = tested on: SR (Other Blood Carcinomas)
Method in brief: as §1

[13] = tested on: KYSE-180 (Esophageal Squamous Cell Carcinoma)
Method in brief: as §1

MEL-JUSO (Melanoma) = tested on: MEL-JUSO (Melanoma)
Method in brief: as §1

[14] = tested on: KCL-22 (Chronic Myelogenous Leukemia)
Method in brief: as §1

[15] = tested on: MS751 (Cervical Carcinoma)
Method in brief: as §1

Compound | combination Emax [1] | combination Emax (LN-18 (Glioblastoma)) | combination Emax [2] | combination Emax [3] | combination Emax [4] | combination Emax [5] | combination Emax (NCI-H2818 (Mesothelioma)) | combination Emax [6] | combination Emax [7] | combination Emax (ES8 (Ewing's Sarcoma)) | combination Emax [8] | combination Emax [9] | combination Emax (CHP-212 (Neuroblastoma)) | combination Emax [10] | combination Emax [11] | combination Emax [12] | combination Emax [13] | combination Emax (MEL-JUSO (Melanoma)) | combination Emax [14] | combination Emax [15]
CC1(C)CCC(CN2CCN(c3ccc(C(=O)NS(=O)(=O)c4ccc(NCC5CCOCC5)c([N+](=O)[O-])c4)c(Oc4cnc5[nH]ccc5c4)c3)CC2)=C(c2ccc(Cl)cc2)C1 [Venetoclax] + C[C@@H]1COCCN1C2=NC(=NC(=C2)C3(CC3)[S@](=N)(=O)C)C4=C5C=CNC5=NC=C4 [AZD6738] (first compound max 1 µM, 7x7, partner max 10 µM) | 0.762 | 0.745 | 0.959 | 0.941 | 0.99 | 0.641 | 0.394 | 0.391 | 0.399 | 0.934 | 0.835 | 0.421 | 0.792 | 0.933 | 0.999 | 0.973 | 0.638 | 0.483 | 0.951 | 0.424
COc1nnc2ccc(N3CCC(c4ccc(OCCN5CCN(C)C(=O)[C@H]5C)cc4)CC3)nn12 [AZD5153] + CC1(C)CCC(CN2CCN(c3ccc(C(=O)NS(=O)(=O)c4ccc(NCC5CCOCC5)c([N+](=O)[O-])c4)c(Oc4cnc5[nH]ccc5c4)c3)CC2)=C(c2ccc(Cl)cc2)C1 [Venetoclax] (first compound max 1 µM, 7x7, partner max 1 µM) | 0.788 | 0.638 | 0.755 | 1 | 0.663 | 0.643 | 0.268 | 0.463 | 0.325 | 0.719 | 0.633 | 0.625 | 0.885 | 0.99 | 0.87 | 0.749 | 0.293 | 0.215 | 0.666 | 0.702
CN(C)CCCOc1ccc(-c2ccc3ncc4c(c3c2)n(C2CCOCC2)c(=O)n4C)cn1 [AZD0156] + CCN(CCO)CCCOc1ccc2c(Nc3cc(CC(=O)Nc4cccc(F)c4)[nH]n3)ncnc2c1 [AZD2811] (first compound max 1 µM, 7x7, partner max 1 µM) | 0.276 | 0.33 | 0.366 | 0.919 | 0.253 | 0.0745 | 0.16 | 0.104 | 0.211 | 1 | 0.428 | 0.0865 | 0.803 | 0.832 | 0.744 | 0.849 | 0.0693 | 0.16 | 0.333 | 0.326
CC1(C)CCC(CN2CCN(c3ccc(C(=O)NS(=O)(=O)c4ccc(NCC5CCOCC5)c([N+](=O)[O-])c4)c(Oc4cnc5[nH]ccc5c4)c3)CC2)=C(c2ccc(Cl)cc2)C1 [Venetoclax] + COc1cc(Nc2ncc3c(n2)-c2ccc(Cl)cc2C(c2c(F)cccc2OC)=NC3)ccc1C(=O)O [Alisertib] (first compound max 1 µM, 7x7, partner max 10 µM) | 0.631 | 0.787 | 0.89 | 0.982 | 0.83 | 0.598 | 0.36 | 0.235 | 0.41 | 0.962 | 0.671 | 0.302 | 0.855 | 0.923 | 0.978 | 0.966 | 0.377 | 0.301 | 0.811 | 0.724
Cc1c2c(nn1C)CSCc1cc(n(C)n1)CSc1cc(c3ccccc3c1)OCCCc1c(C(=O)O)n(C)c3c-2c(Cl)ccc13 [AZD5991] + CN(C)CCCOc1ccc(-c2ccc3ncc4c(c3c2)n(C2CCOCC2)c(=O)n4C)cn1 [AZD0156] (first compound max 1 µM, 7x7, partner max 1 µM) | 0.502 | 0.514 | 1 | 0.913 | 0.692 | 0.27 | 0.355 | 0.263 | 0.195 | 0.385 | 0.273 | 0.211 | 0.837 | 1 | 1 | 0.96 | 0.934 | 0.439 | 0.926 | 0.859
NC1(C(=O)N[C@@H](CCO)c2ccc(Cl)cc2)CCN(c2ncnc3[nH]ccc23)CC1 [Capivasertib] + COc1nnc2ccc(N3CCC(c4ccc(OCCN5CCN(C)C(=O)[C@H]5C)cc4)CC3)nn12 [AZD5153] (first compound max 10 µM, 7x7, partner max 1 µM) | 0.832 | 0.779 | 0.605 | 1 | 0.899 | 0.847 | 0.238 | 0.482 | 0.416 | 0.798 | 0.681 | 0.668 | 0.932 | 1 | 0.974 | 0.769 | 0.616 | 0.36 | 0.792 | 0.794
NC1(C(=O)N[C@@H](CCO)c2ccc(Cl)cc2)CCN(c2ncnc3[nH]ccc23)CC1 [Capivasertib] + C[C@@H]1COCCN1C2=NC(=NC(=C2)C3(CC3)[S@](=N)(=O)C)C4=C5C=CNC5=NC=C4 [AZD6738] (first compound max 10 µM, 7x7, partner max 10 µM) | 0.809 | 0.846 | 0.94 | 0.854 | 0.964 | 0.91 | 0.437 | 0.497 | 0.422 | 0.961 | 0.623 | 0.478 | 0.829 | 0.805 | 0.981 | 0.954 | 0.554 | 0.524 | 0.979 | 0.498
CCc1c2c(nc3ccc(O)cc13)-c1cc3c(c(=O)n1C2)COC(=O)[C@]3(O)CC [SN-38] + CN(C)CCCOc1ccc(-c2ccc3ncc4c(c3c2)n(C2CCOCC2)c(=O)n4C)cn1 [AZD0156] (first compound max 0.3 µM, 7x7, partner max 1 µM) | 0.749 | 0.617 | 0.951 | 0.305 | 0.992 | 0.716 | 0.499 | 0.662 | 0.702 | 0.984 | 0.957 | 0.131 | 0.747 | 0.968 | 1 | 0.994 | 0.411 | 0.263 | 0.921 | 0.883
CCN(CCO)CCCOc1ccc2c(Nc3cc(CC(=O)Nc4cccc(F)c4)[nH]n3)ncnc2c1 [AZD2811] + O=C(c1cc(Cc2n[nH]c(=O)c3ccccc23)ccc1F)N1CCN(C(=O)C2CC2)CC1 [Olaparib] (first compound max 1 µM, 7x7, partner max 10 µM) | 0.448 | 0.287 | 0.509 | 0.882 | 0.738 | 0.176 | 0.234 | 0.109 | 0.264 | 0.997 | 0.502 | 0.166 | 0.771 | 0.83 | 0.603 | 0.875 | 0.176 | 0.243 | 0.417 | 0.243
CN(C)CCCOc1ccc(-c2ccc3ncc4c(c3c2)n(C2CCOCC2)c(=O)n4C)cn1 [AZD0156] + C[C@@H]1COCCN1C2=NC(=NC(=C2)C3(CC3)[S@](=N)(=O)C)C4=C5C=CNC5=NC=C4 [AZD6738] (first compound max 1 µM, 7x7, partner max 10 µM) | 0.715 | 0.725 | 0.93 | 0.857 | 0.892 | 0.696 | 0.324 | 0.33 | 0.381 | 0.799 | 0.891 | 0.373 | 0.839 | 0.751 | 1 | 0.946 | 0.915 | 0.525 | 0.978 | 0.271
COc1cccc2c1C(=O)c1c(O)c3c(c(O)c1C2=O)C[C@@](O)(C(=O)CO)C[C@@H]3O[C@H]1C[C@H](N)[C@H](O)[C@H](C)O1 [Doxorubicin] + Cc1cc2ncnn2cc1Nc1ncc2c(n1)n(C1CCOCC1)c(=O)n2C [AZD7648] (first compound max 1 µM, 7x7, partner max 10 µM) | 0.69 | 0.33 | 0.931 | 0.337 | 0.943 | 0.936 | 0.694 | 0.432 | 0.682 | 0.935 | 0.974 | 0.182 | 0.782 | 0.994 | 1 | 0.994 | 0.858 | 0.328 | 0.932 | 0.891
CN(CCO)CC[C@H](CSc1ccccc1)Nc1ccc(S(=O)(=O)NC(=O)c2ccc(N3CCC([C@@H](O)c4ccccc4-c4ccc(Cl)cc4)CC3)cc2)cc1S(=O)(=O)C(F)(F)F [AZD4320] + CCN(CCO)CCCOc1ccc2c(Nc3cc(CC(=O)Nc4cccc(F)c4)[nH]n3)ncnc2c1 [AZD2811] (first compound max 1 µM, 7x7, partner max 1 µM) | 0.151 | 0.584 | 0.594 | 1 | 1 | 0.173 | 0.191 | 0.759 | 0.849 | 1 | 0.856 | 0.422 | 0.758 | 0.958 | 0.723 | 0.938 | 0.181 | 0.446 | 0.556 | 0.348
